Assays:
human TREX1 = target: T1, human TREX1 (Homo sapiens, UniProt Q9NSU2); test: hTREX1 Biochemical Assay (fluorescence, dsDNA substrate degradation); conditions: full length human TREX1, 4 h pre-incubation, 18 h reaction at 25° C.
T1 construct: N-terminally His-Tev tagged full length human TREX1; made in house; host or cells: E. coli
T1 sequence (Q9NSU2 1-314): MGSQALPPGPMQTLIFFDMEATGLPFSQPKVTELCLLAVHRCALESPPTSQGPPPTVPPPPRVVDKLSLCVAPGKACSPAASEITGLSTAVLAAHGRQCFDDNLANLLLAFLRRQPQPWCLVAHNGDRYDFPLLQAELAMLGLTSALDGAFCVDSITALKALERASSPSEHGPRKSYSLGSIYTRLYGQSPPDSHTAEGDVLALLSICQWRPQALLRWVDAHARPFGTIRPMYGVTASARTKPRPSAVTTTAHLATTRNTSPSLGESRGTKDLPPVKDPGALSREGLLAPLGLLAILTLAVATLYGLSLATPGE
Experimental: (§1) Degradation of the dsDNA liberates free fluorophore to produce a fluorescent signal. Specifically, 7.5 μL of N-terminally His-Tev tagged full length human TREX1 (expressed in E. coli and purified in house) in reaction buffer (50 mM Tris, 150 mM NaCl, 2 mM DTT, 0.1 mg/mL BSA, 0.01% (w/v) Tween-20, 5 mM MgCl2, pH 7.4) was added to a 384-well Black ProxiPlate Plus (PerkinElmer) which already contained compound (150 nL) at varying concentrations as a 10 point dose-response in DMSO. The plate was incubated at 25° C. for 4 hours. Reactions were initiated by adding 7.5 μL of dsDNA substrate (Strand A: 5′ TEX615/GCT AGG CAG 3′; Strand B: 5′ CTG CCT AGC/IAbRQSp (Integrated DNA Technologies)) in reaction buffer. Final concentrations were 4 pM TREX1, 60 nM dsDNA substrate in reaction buffer with 1.0% DMSO (v/v). After 18 hours at 25° C., reactions were quenched by the addition of 2 p L of 500 mM EDTA. Final concentrations in the quenched reaction were 3.5 pM TREX1, 53 nM DNA and 59 mM EDTA in a volume of 17 μL. After a 5-minute incubation at room temperature, plates were read in an EnVision plate reader (PerkinElmer) measuring fluorescence at 615 nm following excitation w/ 570 nm light. IC50 values were calculated by comparing the measured fluorescence at 615 nm relative to control wells pre-quenched w/ EDTA (100% inhibition) and no inhibitor (0% inhibition) controls as using non-linear least square four parameter fits and either Genedata or GraphPad Prism (GraphPad Software, Inc.).

mouse TREX1 = target: T2, mouse TREX1 (Mus musculus, UniProt Q91XB0); test: mTREX1 Biochemical Assay (fluorescence, dsDNA substrate degradation); conditions: full length mouse TREX1, 4 h pre-incubation, 18 h reaction at 25° C.
T2 construct: N-terminally His-Tev tagged full length mouse TREX1; made in house; host or cells: E. coli
T2 sequence (Q91XB0 1-314): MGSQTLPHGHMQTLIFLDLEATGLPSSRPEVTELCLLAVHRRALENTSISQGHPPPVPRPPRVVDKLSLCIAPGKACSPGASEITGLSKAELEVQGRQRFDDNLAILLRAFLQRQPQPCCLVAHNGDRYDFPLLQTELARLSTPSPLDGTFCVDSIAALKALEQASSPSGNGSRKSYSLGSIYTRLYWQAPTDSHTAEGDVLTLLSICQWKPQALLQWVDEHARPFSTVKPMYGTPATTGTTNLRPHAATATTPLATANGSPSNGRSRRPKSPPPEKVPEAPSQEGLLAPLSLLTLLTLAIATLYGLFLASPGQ
Experimental: as §1, with “Specifically, 7.5 p L of N-terminally” for “Specifically, 7.5 μL of N-terminally”, “full length mouse TREX1 (expressed” for “full length human TREX1 (expressed”, “concentrations were 6 pM TREX1,” for “concentrations were 4 pM TREX1,”, “reaction were 5.3 pM TREX1,” for “reaction were 3.5 pM TREX1,”, “of 17 p L. After a” for “of 17 μL. After a”

human TREX2 = target: T3, human TREX2 (Homo sapiens, UniProt Q9BQ50); test: hTREX2 Biochemical Assay (selectivity hTREX1 vs hTREX2); conditions: biochemical selectivity for hTREX1 vs hTREX2
T3 construct: human TREX2 (residues M44-A279, expressed in E. coli); made in house; host or cells: E. coli
T3 sequence (Q9BQ50 44-279 isoform Q9BQ50-1): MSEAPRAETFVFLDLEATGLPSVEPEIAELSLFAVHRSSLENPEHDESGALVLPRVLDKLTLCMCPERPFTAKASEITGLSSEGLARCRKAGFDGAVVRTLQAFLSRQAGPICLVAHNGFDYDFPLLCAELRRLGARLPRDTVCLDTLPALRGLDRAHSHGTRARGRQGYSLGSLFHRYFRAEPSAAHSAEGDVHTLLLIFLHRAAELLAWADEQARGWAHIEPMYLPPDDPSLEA
Experimental: Degradation of the dsDNA liberates free fluorophore to produce a fluorescent signal. Specifically, 7.5 p L of N-terminally His-Tev tagged human TREX2 (residues M44-A279, expressed in E. coli and purified in house) in reaction buffer (50 mM Tris, 150 mM NaCl, 2 mM DTT, 0.1 mg/mL BSA, 0.01% (w/v) Tween-20, 5 mM MgCl2, pH 7.4) was added to a 384-well Black ProxiPlate Plus (PerkinElmer) which already contained compound (150 nL) at varying concentrations as a 10 point dose-response in DMSO. The plate was incubated at 25° C. for 4 hours. Reactions were initiated by adding 7.5 μL of dsDNA substrate (Strand A: 5′ TEX615/GCT AGG CAG 3′; Strand B: 5′ CTG CCT AGC/IAbRQSp (IDT)) in reaction buffer. Final concentrations were 50 pM TREX2, 60 nM dsDNA substrate in reaction buffer with 1.0% DMSO (v/v). After 18 hours at 25° C., reactions were quenched by the addition of 2 μL of 500 mM EDTA. Final concentrations in the quenched reaction mixture were 44 pM TREX2, 53 nM DNA and 59 mM EDTA in a volume of 17 μL. After a 5-minute incubation at room temperature, plates were read in an EnVision plate reader (PerkinElmer) measuring fluorescence at 615 nm following excitation w/ 570 nm light. IC50 values were calculated by comparing the measured fluorescence at 615 nm relative to control wells pre-quenched w/ stop buffer (100% inhibition) and no inhibitor (0% inhibition) controls as using non-linear least square four parameter fits and either Genedata or GraphPad Prism (GraphPad Software, Inc.).

| SMILES | IC50 (human TREX1) [nM] | IC50 (mouse TREX1) [nM] | hTREX1 vs hTREX2 selectivity (human TREX2) |
| --- | --- | --- | --- |
| Cn1c([C@@H](C(c2ccccc2C#N)c2ccccc2C#N)C(F)(F)F)nc(C(=O)Nc2cnoc2)c(O)c1=O (single isomer, unassigned) [Example 21 Isomer 2, 2-(3,3-bis(2-cyanophenyl)-1,1,1-trifluoropropan-2-yl)-5-hydroxy-N-(isoxazol-4-yl)-1-methyl-6-oxo-1,6-dihydropyrimidine-4-carboxamide] | 10 to 100 | > 10 | C (C = >50 fold selective for hTREX1) |
| Cn1c([C@@H](CF)C(c2ccccc2)c2ccccc2)nc(C(=O)Nc2cnoc2)c(O)c1=O (single isomer, unassigned) [Example 18 Isomer 1, 2-(3-fluoro-1,1-diphenylpropan-2-yl)-5-hydroxy-N-(isoxazol-4-yl)-1-methyl-6-oxo-1,6-dihydropyrimidine-4-carboxamide] | 10 to 100 | > 10 | A (A = <25 fold selective for hTREX1) |
| CC(c1nc(C(=O)Nc2cnoc2)c(O)c(=O)n1C)C(c1ccc(F)cc1F)c1ccccc1C#N (single isomer, unassigned) [Example 13 Isomer 1] | < 1 | < 1 | C (C = >50 fold selective for hTREX1) |
| CC(c1nc(C(=O)Nc2cnoc2)c(O)c(=O)n1C)C(c1cc(F)cc(F)c1)c1ccccc1C#N (single isomer, unassigned) [Example 11 Isomer 4] | 1 to 10 | 1 to 10 | A (A = <25 fold selective for hTREX1) |
| CC(c1nc(C(=O)Nc2cnoc2)c(O)c(=O)n1C)C(c1ccccc1)c1cc(F)ccc1C#N (single isomer, unassigned) [Example 6 Isomer 1] | 1 to 10 | > 10 | C (C = >50 fold selective for hTREX1) |
| CC(c1nc(C(=O)Nc2cnoc2)c(O)c(=O)n1C)C(c1ccc(F)c(F)c1)c1ccccc1C#N (single isomer, unassigned) [Example 12 Isomer 3] | < 1 | < 1 | B (B = 25 to 50 fold selective for hTREX1) |
| C[C@H](c1nc(C(=O)Nc2cnoc2)c(O)c(=O)n1C)[C@H](c1ccccc1)c1ccccc1Cl (single isomer, unassigned) [Example 2 Isomer 4, 2-(1-(2-chlorophenyl)-1-phenylpropan-2-yl)-5-hydroxy-N-(isoxazol-4-yl)-1-methyl-6-oxo-1,6-dihydropyrimidine-4-carboxamide] | > 100 | > 10 | A (A = <25 fold selective for hTREX1) |
| CC(c1nc(C(=O)Nc2cnoc2)c(O)c(=O)n1C)C(c1ccccc1)c1ccc(F)cc1C#N (single isomer, unassigned) [Example 7 Isomer 1] | < 1 | > 10 | C (C = >50 fold selective for hTREX1) |
| C[C@H](c1nc(C(=O)Nc2cnoc2)c(O)c(=O)n1C)[C@H](c1ccccc1)c1ccc(C(=O)N(C)C)cc1C#N (single isomer, unassigned) [Example 16 Isomer 4, 2-(1-(2-cyano-4-(dimethylcarbamoyl)phenyl)-1-phenylpropan-2-yl)-5-hydroxy-N-(isoxazol-4-yl)-1-methyl-6-oxo-1,6-dihydropyrimidine-4-carboxamide] | < 1 | < 1 | B (B = 25 to 50 fold selective for hTREX1) |
| CC(c1nc(C(=O)Nc2cnoc2)c(O)c(=O)n1C)C(c1ccccc1)c1cc(F)ccc1C#N (single isomer, unassigned) [Example 6 Isomer 3] | > 100 | > 10 | A (A = <25 fold selective for hTREX1) |
| Cn1c(C(C)(C)C(c2ccccc2)c2ccccc2)nc(C(=O)Nc2cnoc2)c(O)c1=O [Example B, 5-hydroxy-N-(isoxazol-4-yl)-1-methyl-2-(2-methyl-1,1-diphenylpropan-2-yl)-6-oxo-1,6-dihydropyrimidine-4-carboxamide] | > 100 | > 10 | A (A = <25 fold selective for hTREX1) |
| CC(c1nc(C(=O)Nc2cnoc2)c(O)c(=O)n1C)C(c1ccccc1Cl)c1ccccc1C#N (single isomer, unassigned) [Example 10 Isomer 4] | < 1 | 1 to 10 | C (C = >50 fold selective for hTREX1) |
| CC(c1nc(C(=O)Nc2cnoc2)c(O)c(=O)n1C)C(c1ccccc1)c1cc(C(=O)N(C)C)ccc1C#N (single isomer, unassigned) [Example 17 Isomer 1] | 10 to 100 | > 10 | A (A = <25 fold selective for hTREX1) |
| CC(c1nc(C(=O)Nc2cnoc2)c(O)c(=O)n1C)C(c1ccccc1Cl)c1ccccc1C#N (single isomer, unassigned) [Example 10 Isomer 3] | < 1 | 1 to 10 | C (C = >50 fold selective for hTREX1) |
